Results as given in PMC5794198, “Inhibitors of Trypanosoma cruzi Sir2 related protein 1 as potential drugs against Chagas disease” (PLoS Neglected Tropical Diseases, 2018).

Key:
hERG channel = biological target: T1, hERG channel (Homo sapiens, UniProt Q12809); experiment: Predictor hERG Fluorescence Polarization Assay; type: binding
T1 construct: purchased Invitrogen
Method: To evaluate toxicity towards mammalian cell lines (hepatocytes (Seralab), neurons and MDCK cells (ATCC); a renal cell line from dogs), all the compounds were assayed with MTT [66]. Additionally, for cardiotoxicity evaluation, where toxic effects in cardiomyocytes could be affecting their function before being lethal, a hERG assay was performed according to the manufacturer’s protocol Predictor hERG Fluorescence Polarization Assay (Invitrogen). Briefly, inhibition of hERG channel was analysed by competition of BNIPSpd and a high-affinity red fluorescent hERG channel ligand. BNIPSpd (9) was mixed with the ligand and membranes containing hERG channel, incubated for 2 hrs at RT and the fluorescence polarization was measured using 530 / 590 nm ex/em filters using the Synergy 2 plate reader (Biotek).

Neurons = experiment: HCS injury score panel in primary neurons; type: cell-based
Method: In vitro assays were also performed in primary cells (hepatocytes and neurons) to evaluate BNIPSpd (9) potential toxicity: (a) host cell nuclei counting after HOECHST staining, (b) viability by measuring the metabolism of WST-8 probe, (c) apoptosis induction through caspase 3/7 activation, (d) evaluation of mitochondrial dysfunction by measuring the membrane potential using TMRM probe, (e) membrane integrity by measuring the extracellular LDH, (f) DNA damage by histone H2AX phosphorylation (exclusively in hepatocytes) and (g) imaging of neurite outgrowth (exclusively in neurons).
The assays were performed 24 hrs after cell collection and isolation. For apoptosis, TMRM, HOECHST and WST-8 assays, cells were seeded at a density of 5000 cells/well in coated 96-well plates, incubated for 24 hrs with the compound and then stained during 1 hour with the following fluorescent probes: 5 μM CellEvent Caspase 3/7 Green Detection Reagent (Invitrogen) for measuring caspase 3/7 activation, 50 μM tetramethyl rhodamine methyl ester (TMRM probe, Anaspec Inc.) for measuring mitochondrial depolarization related to transient cytosolic Ca^2+ signals, 5 μg/mL of HOECHST (Sigma-Aldrich) for nuclei detection and 10 μL/well of WST-8 reagent (Sigma-Aldrich) to detect viable cells. Then, absorbance at 450 nm was measured in order to analyse cell viability (WST-8). Cells were washed three times and analysed using the automatic fluorescence microscope BD Pathway 855. Pictures were taken using a 20 X objective and 488/515 nm ex/em filters for CellEvent Caspase 3/7 reagent, 555/ 645 nm ex/em filters for TMRM and 380/460 nm ex/em filters for HOECHST. Data were analysed with AttoVision (Becton Dickinson). The LDH assay was performed according to the manufacturer's protocol, Cytotoxicity Detection Kit LDH (Roche). LDH release was measured in mU/L in culture media obtained from cells subjected to treatments for 24 hrs, by measuring the released LDH rate of oxidation of NADH to NAD^+ at 340 nm using Synergy 2 from BioTech.
For the neurite outgrowth assay, samples were washed with PBS, fixed using methanol for 10 mins at -20°C. The fixed samples were washed three times with PBS and permeabilized with PBS-Triton X-100 0.3% for 10 mins, washed three times and then blocked with BSA 0.5% in PBS for 30 mis. […] Neurite average length was calculated using the neurite outgrowth module of AttoVision software (Becton Dickinson).
Nimesulide (400 μM) was included as a positive toxicity control, and the vehicle as a negative control. The relative percentage of deviation from the negative control was quantified and assigned with a number from 0 to 5 according to the following criteria: 0 (0–20% deviation), 1 (20–40%), 2 (40–60%), 3 (60–100%), 4 (100–1000%), or 5 (>1000% deviation). […]

[1] = C2C12 host cell cytotoxicity (cell ratio) in HCS assay; type: cell-based, Mouse; settings: mouse, cell ratio, 72 h; read-out: C2C12 Cytotoxicity (CC50 ± SD)
Method: (§1) For the evaluation of the activity against T. cruzi amastigotes, high-content screening (HCS) was designed. In summary, 100 μL of host C2C12 cells (ATCC) were seeded in clear bottom black 96-well plates at a density of 2.5 x 10^4 cells/mL (2.5 × 10^3 cells/well). […] The parasites were allowed to infect for a 24 hr period, after which compounds were added in a volume of 50 μL. […] After 72 hrs of compound incubation, the wells were fixed with 4% paraformaldehyde for 15 to 30 mins. The plates were then washed once with deionized water and stained with a solution of DAPI (3 μM) for 1 hour. Plates were imaged in an INCell 2000 (GE Healthcare) high-content analyser by taking 16 pictures per well at 20 X objective amplification. Images were analysed with INCell Developer software (GE Healthcare) using the segmentation of host cell nuclei and parasite kinetoplast DNA. The measurement output used was the average number of parasites per cell calculated by the ratio of host cell nuclei/parasite kinetoplast DNA.

C2C12 cells = experiment: as above; type: cell-based, Mouse; settings: CC50 cell line (C2C12)/EC50 T. cruzi
Method: as §1

Gastric stability = type: in vitro ADME

T1 sequence (Q12809 whole entry): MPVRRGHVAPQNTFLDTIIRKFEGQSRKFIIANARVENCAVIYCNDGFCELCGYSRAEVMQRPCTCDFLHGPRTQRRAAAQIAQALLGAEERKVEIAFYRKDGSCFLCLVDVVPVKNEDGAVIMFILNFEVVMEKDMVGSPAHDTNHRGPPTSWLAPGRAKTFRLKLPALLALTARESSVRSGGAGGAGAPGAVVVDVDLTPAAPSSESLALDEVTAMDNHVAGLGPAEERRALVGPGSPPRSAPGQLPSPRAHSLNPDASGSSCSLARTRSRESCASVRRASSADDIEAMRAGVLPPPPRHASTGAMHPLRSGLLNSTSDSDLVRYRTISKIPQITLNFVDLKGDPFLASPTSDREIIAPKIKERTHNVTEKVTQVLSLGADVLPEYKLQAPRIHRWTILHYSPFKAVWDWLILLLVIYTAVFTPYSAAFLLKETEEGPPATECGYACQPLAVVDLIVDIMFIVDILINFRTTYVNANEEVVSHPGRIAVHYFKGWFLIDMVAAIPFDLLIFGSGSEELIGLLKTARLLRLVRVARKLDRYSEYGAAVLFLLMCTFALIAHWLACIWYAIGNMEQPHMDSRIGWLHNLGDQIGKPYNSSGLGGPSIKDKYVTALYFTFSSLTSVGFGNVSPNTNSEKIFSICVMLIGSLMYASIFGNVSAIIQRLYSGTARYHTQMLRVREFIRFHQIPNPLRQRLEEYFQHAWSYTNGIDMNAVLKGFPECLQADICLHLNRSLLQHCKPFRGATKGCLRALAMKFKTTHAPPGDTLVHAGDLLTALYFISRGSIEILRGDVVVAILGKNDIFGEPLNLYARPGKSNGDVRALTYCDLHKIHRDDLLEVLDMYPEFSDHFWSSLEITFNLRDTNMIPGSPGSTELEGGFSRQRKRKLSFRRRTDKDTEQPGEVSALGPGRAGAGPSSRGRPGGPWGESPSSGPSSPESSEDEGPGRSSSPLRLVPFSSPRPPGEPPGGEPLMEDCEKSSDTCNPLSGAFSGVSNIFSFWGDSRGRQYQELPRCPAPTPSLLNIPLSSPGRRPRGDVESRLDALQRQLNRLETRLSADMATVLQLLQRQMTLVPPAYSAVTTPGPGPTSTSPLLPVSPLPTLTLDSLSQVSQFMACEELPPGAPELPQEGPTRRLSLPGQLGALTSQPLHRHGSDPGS

## O=C1c2cccc3cccc(c23)C(=O)N1CCCNCCCCNCCCNCCCN1C(=O)c2cccc3cccc(c23)C1=O [Compound 9, BNIP Spermidine]
hERG channel
  hERG channel functional: 99.6%
hERG channel; fluorescence polarization competition, 2 hrs RT
  Cardiotoxicity (hERG predictor): 0.36 ± 0.51%
Neurons; HCS panel
  Concentration from which toxicity was most significant in neurons: 12.5 µM
  Concentration up to which no effects in neurons: 0.7 µM
Neurons; at higher concentrations (50 μM)
  Injury score for neurons: high levels
Neurons; combined score of cytotoxicity panel, 24 hrs
  Injury score for neurons: moderate injury (moderate injury (≥5-to <12))
[1]
  CC50 at 72 h: 24.5 ± 0.45 µM
C2C12 cells
  Selectivity Index: 8.8
Gastric stability
  Gastric stability: 100%
